The source of these data is patent publication US7799753B2, “Bisubstrate inhibitors of protein tyrosine kinases as therapeutic agents” (Board of Governers for Higher Education, priority 2004, dated 2010).

Numbered stars: 1 amine (or outer) side, 2 acyl side, 3 side chain; on linkers, the order of the positions; unused ones are H or OH. Square brackets hold non-standard residues; d marks the D form. Peptide text beside a SMILES is read from it. * marks the point of attachment. X2 = CS(=O)(=O)Nc1ccc(C[C@H](N[*:1])C(=O)[*:2])cc1; Phe(4-NH2) = Nc1ccc(C[C@H](N)C(=O)O)cc1; X1 = Nc1ncnc2c1c(-c1ccccc1)nn2CC(=O)*

Data set [1] concerns the target T1, Src (Homo sapiens, UniProt P12931). The data set is described as follows: Radioactive kinase assay, polyE4Y phosphorylation by Src (peptides, N-heteroaromatics and conjugates). The class given is biochemical.
In data set [2] the target is T1, Src. Kind of data set: Steady-state kinetic radioactive assay with Src (polyE4Y, [γ-32P]ATP), ATP-phosphopeptide conjugates. The class given is biochemical. Here is the method: Steady-State Kinetic Assays.
Artificial substrate polyE4Y (average MW: 35 kD) was used for routine kinase activity. The kinase activity of PTKs was first determined using a standard radiometric PTK activity assay. This assay contains polyE4Y as the phosphate accepting substrate, [γ-^32P]-ATP, and MgCl2. After a reaction time of 30 min at 30° C., 35 μl of the reaction mixture was removed and spotted onto a filter paper and placed into warm 5% trichloroacetic acid (TCA). The TCA stops the kinase reaction, precipitates the proteins and polyE4Y onto the filter paper, and washes the un-reacted ATP and others away. After 3 TCA washes for 10 min each, the radioactivity remaining on the filter paper was determined by liquid scintillation counting. The assays were done in duplicates and repeated at least three times. Control reactions lacking polyE4Y were included for each enzyme concentration to correct for any non-polyE4Y specific phosphorylation. […] The inhibitory mechanism was determined based on the effect of the compound on the Km and Vm values Inhibitory constant (Ki) was determined by using Sigma Plot 8.0 Enzyme Kinetics Module.

The mark [3] stands for this setting: read-out: IC50, inhibition of polyE4Y phosphorylation by Src.

In general, IC50 refers to the concentration needed to halve the response being measured. In general, Ki refers to a measure of affinity in units of concentration, obtained from inhibition or displacement.

T1 sequence (P12931 whole entry, species assumed): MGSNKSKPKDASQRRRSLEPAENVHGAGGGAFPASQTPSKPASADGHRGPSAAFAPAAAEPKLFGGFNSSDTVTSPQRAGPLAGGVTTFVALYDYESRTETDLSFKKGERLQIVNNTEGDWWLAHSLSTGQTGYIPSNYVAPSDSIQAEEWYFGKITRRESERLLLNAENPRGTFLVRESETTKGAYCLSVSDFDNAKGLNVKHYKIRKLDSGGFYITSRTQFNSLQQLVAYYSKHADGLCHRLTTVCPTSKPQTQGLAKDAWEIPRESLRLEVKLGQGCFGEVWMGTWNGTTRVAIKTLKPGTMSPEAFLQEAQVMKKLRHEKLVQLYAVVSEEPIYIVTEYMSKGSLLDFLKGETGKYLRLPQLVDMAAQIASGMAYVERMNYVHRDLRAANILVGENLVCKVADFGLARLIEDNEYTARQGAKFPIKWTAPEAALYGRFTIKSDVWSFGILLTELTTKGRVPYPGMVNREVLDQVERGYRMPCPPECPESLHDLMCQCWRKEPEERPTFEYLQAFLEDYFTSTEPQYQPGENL

In the case of `CC[C@H](C)[C@H](NC(=O)[C@H](CS)NC(C)=O)C(=O)N[C@@H](Cc1ccc(O)cc1)C(=O)N[C@@H](CCCCN)C(=O)N[C@@H](Cc1ccc(O)cc1)C(=O)N[C@@H](Cc1ccc(N)cc1)C(=O)O` [Compound 68, Ac-CIYKYF(NH2)] (Ac-CIYKY[Phe(4-NH2)]-OH), in data set [1] (qualitative, relative to parent or comparator named in the text), the “Src inhibitory potency in words” value is listed as “not active”.

For the compound `CC[C@H](C)[C@H](NC(=O)[C@H](CCC(=O)O)NC(=O)[C@H](CCC(=O)O)NC(=O)[C@H](Cc1ccc(OP(=O)(O)O)cc1)NC(=O)CCC(=O)NCCCOCCOCCOCCCNS(=O)(=O)c1ccc(C(=O)OC[C@H]2O[C@@H](n3cnc4c(N)ncnc43)[C@H](O)[C@@H]2O)cc1)C(=O)O` [Compound 9, 4-(sulfamoyl)benzoyladenosine-pYEEI], the IC50 in data set [2] is more than 300 µM. In data set [2] (Src), the “enhancement of catalytic activity and phosphorylation” value is reported as “at least 40%”.

Take `CC[C@H](C)[C@H](NC(=O)[C@H](Cc1ccc(O)cc1)NC(=O)Cn1nc(-c2ccccc2)c2c(N)ncnc21)C(=O)N[C@@H](Cc1ccc(O)cc1)C(=O)NCC(=O)N[C@@H](CO)C(=O)N[C@@H](Cc1ccccc1)C(=O)N[C@@H](CCCCN)C(=O)O` [Compound 43] (X1-YIYGSFK-OH): in data set [1] (setting [3]), the 50% inhibitory concentration (IC50) came to 2.7 µM.

Turning to `CC[C@H](C)[C@H](NC(=O)[C@@H](N)Cc1ccc(O)cc1)C(=O)N[C@@H](Cc1ccc(O)cc1)C(=O)NCC(=O)N[C@@H](CO)C(=O)N[C@@H](Cc1ccccc1)C(=O)N[C@@H](CCCCN)C(=O)O` [Compound 85, YIYGSFK] (H-YIYGSFK-OH), the IC50 in data set [1] (modified peptide analogs, read-out: IC50 (μM), Src kinase inhibitory potency (Table 1)) was more than 100 µM.

Regarding `CC[C@H](C)[C@H](NC(=O)[C@H](CCC(=O)O)NC(=O)[C@H](CCC(=O)O)NC(=O)[C@H](Cc1ccc(OP(=O)(O)O)cc1)NC(=O)CCC(=O)NCCCOCCOCCOCCCN)C(=O)O` [Compound 16, H2N-1,13-Trioxa-Suc-pTyr-Glu-Glu-Ile-OH], the inhibitory constant (Ki) in data set [2] is 608 µM.

With `CC[C@H](C)[C@H](NC(=O)[C@H](Cc1ccc(O)cc1)NC(C)=O)C(=O)N[C@@H](Cc1ccc(O)cc1)C(=O)NCC(=O)N[C@@H](CO)C(=O)N[C@@H](Cc1ccccc1)C(=O)N[C@@H](CCCCN)C(=O)O` [Compound 41, Ac-YIYGSFK, reference compound] (Ac-YIYGSFK-OH; C-terminus assumed), the half-maximal inhibitory concentration (IC50) in data set [1] (setting [3]) came out at 570 µM.

On to `CC[C@H](C)[C@H](NC(=O)[C@H](CS)NC(C)=O)C(=O)N[C@@H](Cc1ccc(O)cc1)C(=O)N[C@@H](CCCCN)C(=O)N[C@@H](Cc1ccc(NS(C)(=O)=O)cc1)C(=O)N[C@@H](Cc1ccc(O)cc1)C(=O)O` [Compound 80, Ac-CIYKF(4-NHSO2CH3)Y] (Ac-CIYK[X2]Y-OH), for which, in data set [1], the IC50 is more than 100 µM.
